What was measured:
hCXCR1 = target: T1, hCXCR1 (Homo sapiens, UniProt P25024); experiment: CXCR1 SPA assay ([125I]-IL-8 binding, hCXCR1-CHO membranes); conditions: [125I]-IL-8 binding to hCXCR1-CHO membranes
T1 construct: purchased Biosignal / Biosignal Packard; alternatively Euroscreen; host or cells: CHO cells over-expressing hCXCR1 (membranes)
T1 sequence (P25024 1-350): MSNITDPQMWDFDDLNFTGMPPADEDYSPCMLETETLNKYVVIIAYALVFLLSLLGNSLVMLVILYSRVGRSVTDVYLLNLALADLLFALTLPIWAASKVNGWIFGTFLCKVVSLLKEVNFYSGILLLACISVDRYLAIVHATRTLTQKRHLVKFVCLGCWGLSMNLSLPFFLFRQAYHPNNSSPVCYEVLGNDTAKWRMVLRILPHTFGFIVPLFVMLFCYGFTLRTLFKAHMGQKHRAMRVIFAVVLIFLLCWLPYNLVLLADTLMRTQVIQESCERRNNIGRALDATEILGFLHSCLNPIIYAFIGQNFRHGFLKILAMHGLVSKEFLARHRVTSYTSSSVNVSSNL
Experimental: For each well of a 96 well plate, a reaction mixture of 10 μg hCXCR1-CHO overexpressing membranes (Biosignal) and 200 μg/well WGA-SPA beads (Amersham) in 100 μl was prepared in CXCR1 assay buffer (25 mM HEPES, pH 7.8, 2 mM CaCl2, 1 mM MgCl2, 125 mM NaCl, 0.1% BSA) (Sigma). A 0.4 nM stock of ligand, [125I]-IL-8 (NEN) was prepared in the CXCR1 assay buffer. 20× stock solutions of test compounds were prepared in DMSO (Sigma). A 6× stock solution of IL-8 (R&D) was prepared in […] assay buffer. The above solutions were added to a 96-well assay plate (PerkinElmer) as follows: 10 μl test compound or DMSO, 40 μl CXCR1 assay buffer or IL-8 stock, 100 μl of reaction mixture, 50 μl of ligand stock (Final [Ligand]=0.1 nM). The assay plates were shaken for 5 minutes on plate shaker, then incubated for 8 hours before cpm/well were determined in Microbeta Trilux counter (PerkinElmer). % Inhibition of Total binding-NSB (250 nM IL-8) was determined for IC50 values.
Alternative CXCR1 SPA Assay
Protocol using CXCR1-expressing membranes from Biosignal Packard
For each 50 μl reaction, a working stock of 0.25 μg/μl hCXCR1-CHO over-expressing membranes with a specific activity of 0.05 pmol/mg (Biosignal Packard) and 25 μg/μl WGA-SPA beads (Perkin Elmer Life Sciences) was prepared in CXCR1 assay buffer (25 mM HEPES, pH 7.8, 0.1 mM CaCl2, 1 mM MgCl2, 100 mM NaCl) (Sigma). […] The assay plates were incubated for 4 hours before cpm/well were determined in a Microbeta Trilux counter (Perkin Elmer Life Sciences). IC50 values were quantified using nonlinear regression analysis in GraphPad Prism. […]
For each 50 μl reaction, a working stock of 0.025 μg/μl hCXCR1-CHO over-expressing membranes with a specific activity of 3.47 pmol/mg (Euroscreen) and 5 μg/μl WGA-SPA beads (Perkin Elmer Life Sciences) was prepared in CXCR1 assay buffer (25 mM HEPES, pH 7.8, 2.0 mM CaCl2, 1 mM MgCl2, 125 mM NaCl) (Sigma). […] The assay plates were incubated for 4 hours before cpm/well were determined in a Microbeta Trilux counter (Perkin Elmer Life Sciences). […]

hCXCR2 = target: T2, hCXCR2 (Homo sapiens, UniProt P25025); experiment: CXCR2 SPA assay ([125I]-IL-8 binding, hCXCR2-CHO membranes); conditions: [125I]-IL-8 binding to hCXCR2-CHO membranes
T2 construct: purchased Biosignal / Biosignal Packard; host or cells: CHO cells over-expressing hCXCR2 (membranes)
T2 sequence (P25025 1-360): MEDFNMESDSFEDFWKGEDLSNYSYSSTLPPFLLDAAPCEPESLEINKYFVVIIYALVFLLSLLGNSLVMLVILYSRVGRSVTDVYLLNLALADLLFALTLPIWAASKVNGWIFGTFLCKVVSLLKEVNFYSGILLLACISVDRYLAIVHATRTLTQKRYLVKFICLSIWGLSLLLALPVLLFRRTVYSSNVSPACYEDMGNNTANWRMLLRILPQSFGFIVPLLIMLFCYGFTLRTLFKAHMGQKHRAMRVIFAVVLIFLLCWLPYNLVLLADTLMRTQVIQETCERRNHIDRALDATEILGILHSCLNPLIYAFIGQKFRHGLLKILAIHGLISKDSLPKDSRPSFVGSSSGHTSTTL
Experimental: For each well of a 96 well plate, a reaction mixture of 4 μg hCXCR2-CHO overexpressing membranes (Biosignal) and 200 μg/well WGA-SPA beads (Amersham) in 100 μl was prepared in CXCR2 assay buffer (25 mM HEPES, pH 7.4, 2 mM CaCl2, 1 mM MgCl2). A 0.4 nM stock of ligand, [125I]-IL-8 (NEN), was prepared in the CXCR2 assay buffer. 20× stock solutions of test compounds were prepared in DMSO (Sigma). A 6× stock solution of GRO-α (R&D) was prepared in CXCR2 assay buffer. The above solutions were added to a 96-well assay plate (PerkinElmer or Corning) as follows: 10 μl test compound or DMSO, 40 ul CXCR2 assay buffer or GRO-α stock, 100 μl of reaction mixture, 50 μl of ligand stock (Final [Ligand]=0.1 nM). When 40× stock solutions of test compounds in DMSO were prepared, then the above protocol was used except instead 5 μl test compound or DMSO and 45 μl CXCR2 assay buffer were used. […]
For each 50 μl reaction, a working stock of 0.031 μg/μl hCXCR2-CHO over-expressing membranes with a specific activity of 0.4 pmol/mg (Biosignal Packard) and 2.5 μg/μl WGA-SPA beads (Perkin Elmer Life Sciences) was prepared in CXCR2 assay buffer (25 mM HEPES, pH 7.4, 2.0 mM CaCl2, 1 mM MgCl2) (Sigma). […] The assay plates were incubated for 2 hours before cpm/well were determined in a Microbeta Trilux counter (Perkin Elmer Life Sciences). IC50 values were quantified using nonlinear regression analysis in GraphPad Prism. […]
For each 200 μl reaction, a working stock of 0.02 μg/μl hCXCR2-CHO over-expressing membranes with a specific activity of 0.6 pmol/mg (Biosignal Packard) and 2 μg/μl WGA-SPA beads (Perkin Elmer Life Sciences) was prepared in CXCR2 assay buffer (25 mM HEPES, pH 7.4, 2.0 mM CaCl2, 1 mM MgCl2) (Sigma). […] The assay plates were incubated for 2 hours before cpm/well were determined in a Microbeta Trilux counter (Perkin Elmer Life Sciences). IC50 values were quantified using nonlinear regression analysis in GraphPad Prism.

CCR7 = target: T3, CCR7 (Homo sapiens, UniProt P32248); experiment: CCR7 [35S]GTPγS exchange assay (SPA, Ba/F3-CCR7 membranes)
T3 sequence (P32248 25-378): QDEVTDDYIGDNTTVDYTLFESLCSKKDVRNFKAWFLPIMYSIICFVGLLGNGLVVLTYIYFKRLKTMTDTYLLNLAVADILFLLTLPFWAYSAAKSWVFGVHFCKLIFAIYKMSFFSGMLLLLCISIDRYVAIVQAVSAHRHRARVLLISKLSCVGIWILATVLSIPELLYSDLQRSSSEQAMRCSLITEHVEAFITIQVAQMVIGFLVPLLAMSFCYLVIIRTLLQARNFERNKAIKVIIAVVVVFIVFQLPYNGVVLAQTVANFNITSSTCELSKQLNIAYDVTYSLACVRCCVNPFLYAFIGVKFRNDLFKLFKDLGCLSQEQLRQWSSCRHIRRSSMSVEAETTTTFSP
Experimental: CCR7 [^35S]GTPγS Exchange Assay.
The exchange of guanosine 5′-[γ-^35S]triphospate ([^35S]GTPγS, triethylammonium salt; specific activity 1250 Ci/mmol; NEN Boston, Mass.) was measured using a scintillation proximity assay (SPA) as previously described (Cox, et. al., Mol. Pharmacol., 59, 2001, 707-15). For each assay point, 2 μg of membrane was preincubated for 30 min at room temperature with 200 μg wheat germ agglutinin-coated SPA beads (WGA-SPA; Amersham, Arlington Heights, Ill.) in SPA binding buffer (50 mM HEPES, 10 mM MgCl2, 1 mM EDTA, 100 mM NaCl, 0.1% BSA, pH 7.6). The beads and membranes were transferred to a 96-well Isoplate (Wallac, Gaithersburg, Md.) and incubated with 10 μM guanosine 5′-diphosphate (GDP) in the presence or absence of 2 nM MIP-30 and/or compounds for 60 min at room temperature. The incubation continued for another 60 min. following the addition of 0.1 nM [^35S]GTPγS. Membrane-bound [^35S]GTPγS was measured using a 1450 Microbeta Trilux counter (Wallac, Gaithersburg, Md.).

SMILES | Ki (hCXCR1) | Ki (hCXCR2) | EC50 (CCR7)
CC(C)c1coc([C@H](NC2=NS(=O)(=O)N=C2Nc2ccc(Br)c(C(=O)N(C)C)c2O)C(C)(C)C)c1 [Example 56] | 4 nM | 7 nM | 
CC[C@@H](Nc1n[s+]([O-])nc1Nc1cccc(C(=O)N(C)C)c1O)c1cc(C(C)C)co1 (stereo partly drawn) [Example 201.1] | 123 nM | 3.5 nM | 
CCC(C)(C)[C@@H](NC1=NS(=O)(=O)N=C1Nc1cccc(C(=O)N(C)C)c1O)c1ccc(C)o1 [Example 2106] |  |  | 12 nM
Cc1cc([C@H](Nc2n[s+]([O-])nc2Nc2cccc(C(=O)N(C)C)c2O)C(C)C)oc1C (stereo partly drawn) [Example 201.9] | 50 nM | 2.7 nM | 
Cc1ccc([C@H](NC2=NS(=O)(=O)N=C2Nc2csc(S(=O)(=O)N3CCOCC3)c2O)C(C)(C)C)o1 [Example 2066] |  |  | 16 nM
CCN(CC)S(=O)(=O)c1scc(NC2=NS(=O)(=O)N=C2N[C@@H](c2ccc(C)o2)C(C)(C)C)c1O [Example 2065] |  |  | 13 nM

From patent US7691856B2, “Thiadiazoledioxides and thiadiazoleoxides as CXC- and CC-chemokine receptor ligands” (Schering Corporation, priority 2002, dated 2010)
